{
  "source": "paper PMC9455983",
  "about": "(International Journal of Molecular Sciences, 2022)",
  "key": {"[1]": {"target": "T1, kappa-opioid receptor (KOR) (Cavia porcellus, UniProt P41144)", "T1 construct": "Guinea pig cortices and cerebella were homogenized using 50 mM Tris, pH 7.4; from tissue; host or cells: guinea pig cortex and cerebellum membranes", "assay": "KOR radioligand competition binding assay ([3H]U69,593)", "design": "species or system guinea pig", "conditions": "Kappa screening results", "method_in_brief": "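Guinea pig cortex and cerebellum homogenates in 50 mM Tris pH 7.4 with 10 mM MgCl2, 2 nM [3H]U69,593, 2 h at 25 °C. Unlabeled U50,488 gave the standard curve and nonspecific binding. Filtration on BSA-soaked GF/B filters, scintillation counting; two replicates, repeated twice, mean ± SD.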"}, "[2]": {"target": "T2, delta-opioid receptor (DOR) (Rattus norvegicus, UniProt P33533)", "T2 construct": "Rat cortices were homogenized using 50 mM Tris, pH 7.4, 10 mM MgCl2-6H2O, 200 µM PMSF; from tissue; host or cells: rat cortex membranes", "assay": "DOR radioligand competition binding assay ([3H]-DPDPE)", "conditions": "Delta screening results", "method_in_brief": "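Radioligand was 2 nM [3H]-DPDPE, incubated 2.5 h at 25 °C with homogenized rat cortex (50 mM Tris pH 7.4, 10 mM MgCl2, 200 µM PMSF). Bound ligand separated on GF/B filters and counted; nonspecific binding from unlabeled DPDPE. Values are mean ± SD, two experiments, two replicates each.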"}, "C57BL/6J mice [3]": {"system": "C57BL/6J mice", "assay": "55 °C warm-water tail-withdrawal assay (antinociception)", "format": "in vivo, mouse", "description": "For intracerebroventricular (i.c.v.) administration, the 1968-series compounds were dissolved in dimethyl sulfoxide (DMSO), followed by the addition of sterile saline (0.9%) so that the final vehicle was 50% DMSO and 50% saline, and the i.c.v. injections were performed as described previously. For per os (p.o.) administration, 1968-4 and 1968-22 were administered in 10% Ethanol/10%Tween-80/80% 0.9% saline. All solutions for animal administration were prepared fresh daily.\nAntinociception was calculated according to the following formula: % antinociception = 100 × (test latency − control latency)/(15 − control latency). Tail-withdrawal data points are the means of 8–16 mice, unless otherwise indicated, with SEM shown by error bars.\nAll dose–response lines were analyzed by regression, and ED50 (effective dose producing 50% antinociception) values and 95% confidence intervals (C.I.) were determined using individual data points from graded dose–response curves with Prism 8.0 software (GraphPad, La Jolla, CA, USA). Percent antinociception was used to determine within group effects and to allow comparison to baseline latency in tail-withdrawal experiments. The statistical significance of differences between ED50 values was determined by evaluation of the ED50 value shift via nonlinear regression modeling with Prism software. Significant differences in behavioral data were analyzed by ANOVA (one-way or two-way with repeated measures (RM), as appropriate). Significant results were further analyzed with Sidak’s, Tukey’s, or Dunnett’s multiple comparison post hoc tests, as appropriate. Data for conditioned place preference experiments were analyzed by two-way RM ANOVA, with analyses examining the main effect of the conditioned place preference phase (e.g., pre- or post-conditioning) and the interaction of drug pretreatment. Significant effects were further analyzed using Sidak’s HSD post hoc testing. All data are presented as mean ± SEM, with significance set at p < 0.05."}, "C57BL/6J mice [4]": {"system": "C57BL/6J mice", "assay": "Opioid receptor involvement in antinociception (antagonist pretreatment, tail-withdrawal assay)", "format": "in vivo, mouse", "description": "Pretreatment of mice with the opioid antagonist naloxone (10 mg/kg, s.c., −15 min) was used to assess receptor contribution to the observed antinociception induced by maximal tested doses of each 1968-series compound tested.\nThe opioid receptor involvement in the agonist activity of the heterocyclic peptidomimetics was determined by pretreating mice with a single dose of β-funaltrexamine (β-FNA, 10 mg/kg, i.p.) or nor-BNI (10 mg/kg, i.p.) 24 h in advance of administration of a dose of 1968-series compound."}, "[5]": {"assay": "LC-MS/MS analysis of blood and perfused brain after i.v. administration", "format": "in vivo, mouse", "description": "To assess the stability of 1968-22 in plasma and evaluate CNS penetration, blood and perfused brains were collected from mice 5, 15, and 30 min after (i.v.) administration of the bis-cyclic guanidine (10 mg/kg, i.v.).\nFigure 5 LC-MS/MS analysis of 1968-22 ([…].) in blood and brain samples isolated from treated mice over 30 min. Control mice received vehicle (10% Ethanol/10%Tween-80/80% 0.9% saline) and were harvested immediately. Points are mean AUC ± SEM for the summed ion extracted chromatographs of 1968-22 from three mice/time points."}, "C57BL/6J mice [6]": {"system": "C57BL/6J mice", "assay": "Respiration rate in CLAMS/Oxymax system", "format": "in vivo, mouse", "conditions": "i.c.v.", "description": "(§1) Respiration rates (in breaths per minute) and animal locomotive activity (as ambulations) were assessed using the Oxymax/CLAMS system (Columbus Instruments, Columbus, OH), as described previously. Mice were habituated to their individual sealed housing chambers for 60 min before testing. Mice were administered 1968-22 (0.3–100 nmol, i.c.v.), morphine (100 nmol, i.c.v.), or vehicle, as indicated, and five min later confined to the CLAMS testing chambers. Pressure monitoring within the sealed chambers measured frequency of respiration. Infrared beams located in the floor measured locomotion as number of beam breaks. Respiration and locomotive data were averaged over 20 min periods for 120 min post-injection of the test compound. Data are presented as % vehicle response ± SEM, ambulation or breaths per minute."}, "C57BL/6J mice [7]": {"system": "C57BL/6J mice", "assay": "Ambulation (locomotor activity) in CLAMS/Oxymax system", "format": "in vivo, mouse", "conditions": "i.c.v.", "description": "as §1"}, "C57BL/6J mice [8]": {"system": "C57BL/6J mice", "assay": "Acute antinociceptive tolerance determination", "conditions": "i.c.v."}, "[9]": {"conditions": "mean of two experiments, read-out: Ki"}},
  "note": "“Also recorded” adds a separate entry of the source. Read-outs that look alike come from different tables or passages of the source.",
  "data": [
    {"smiles": "Cc1cc(O)cc(C)c1C[C@H]1CN([C@@H](Cc2c(C)cc(O)cc2C)CN2C(=N)NC[C@@H]2C)C(=N)N1", "note": "[1968-22]", "values": [
      {"measurement": "Ki", "setting": "[1]; experiment 1, unit inferred, read-out: Ki (Exp 1)", "value": 195, "unit": "nM"},
      {"measurement": "Ki", "setting": "[1]; experiment 2, unit inferred, read-out: Ki (Exp 2)", "value": 242, "unit": "nM"},
      {"measurement": "Ki", "setting": "[1]; [9]", "value": 218, "unit": "nM"},
      {"measurement": "Ki", "setting": "[2]; first Ki column, unit not printed (apparently M), read-out: Ki (first column)", "value": 260, "unit": "nM"},
      {"measurement": "Ki", "setting": "[2]; mean of both Ki, unit inferred, read-out: MEAN (Ki)", "value": 265, "unit": "nM"},
      {"measurement": "Ki", "setting": "[2]; [9]", "value": 265, "unit": "nM"},
      {"measurement": "Ki", "setting": "[2]; second Ki column, unit not printed (apparently M), read-out: Ki (second column)", "value": 271, "unit": "nM"},
      {"measurement": "antinociception after oral administration (in words)", "setting": "C57BL/6J mice [3]; 10 mg/kg, p.o.", "value": "significant antinociception"},
      {"measurement": "time of peak antinociception after i.c.v. administration", "setting": "C57BL/6J mice [3]; i.c.v.", "value": 20, "unit": "min"},
      {"measurement": "ED50 (and 95% Confidence Interval (C.I.)) Values, i.c.v. (nmol)", "setting": "C57BL/6J mice [3]; i.c.v., antinociception at peak response, mice, * ED50 estimated where maximum antinociception not achieved", "value": "0.011 (0.005–0.026) nmol"},
      {"measurement": "duration of significant antinociception", "setting": "C57BL/6J mice [3]; i.c.v., maximum doses tested", "value": 70, "unit": "min"},
      {"measurement": "effect of naloxone pretreatment on antinociception", "setting": "C57BL/6J mice [4]; naloxone 10 mg/kg, s.c., −15 min, maximal tested i.c.v. dose of compound", "value": "most susceptible to antagonism by naloxone; also recorded: blocked fully"},
      {"measurement": "effect of naltrindole (DOR antagonist) pretreatment on antinociception", "setting": "C57BL/6J mice [4]; naltrindole 20 mg/kg, i.p., −20 min, 1968-16 30 nmol or 1968-22 0.3 nmol, i.c.v.", "value": "significantly antagonized"},
      {"measurement": "effect of nor-BNI (KOR antagonist) pretreatment on antinociception", "setting": "C57BL/6J mice [4]; nor-BNI 10 mg/kg, i.p., −24 h, 1968-16 30 nmol or 1968-22 0.3 nmol, i.c.v.", "value": "significantly antagonized"},
      {"measurement": "effect of β-FNA (MOR antagonist) pretreatment on antinociception", "setting": "C57BL/6J mice [4]; β-FNA 10 mg/kg, i.p., −24 h, 1968-16 30 nmol or 1968-22 0.3 nmol, i.c.v.", "value": "significantly antagonized"},
      {"measurement": "time detectable / stable in blood after i.v. administration", "setting": "[5]; 10 mg/kg", "value": "at least 30 min"},
      {"measurement": "levels in perfused brain by LC-MS/MS", "setting": "[5]; 10 mg/kg, 5, 15 and 30 min", "value": "negligible levels"},
      {"measurement": "detection in serum by LC-MS/MS", "setting": "[5]; 10 mg/kg, within 5 min of administration", "value": "readily detected"},
      {"measurement": "effect on respiration rate vs vehicle", "setting": "C57BL/6J mice [6]; 100 nmol", "value": "increases in respiration rates"},
      {"measurement": "effect on respiration rate vs vehicle", "setting": "C57BL/6J mice [6]; 0.3, 1 or 10 nmol", "value": "did not have any significant effect"},
      {"measurement": "effect on ambulation vs vehicle", "setting": "C57BL/6J mice [7]; 0.3 nmol, 0–20 min", "value": "brief reductions in ambulations"},
      {"measurement": "effect on ambulation vs vehicle", "setting": "C57BL/6J mice [7]; 100 nmol", "value": "elevated ambulations"},
      {"measurement": "effect on ambulation vs vehicle", "setting": "C57BL/6J mice [7]; 1 or 10 nmol", "value": "without significant effect"},
      {"measurement": "acute antinociceptive tolerance (in words)", "setting": "C57BL/6J mice [8]", "value": "significant tolerance"},
      {"measurement": "ED50 (95% C.I.) of second dose at 8 h", "setting": "C57BL/6J mice [8]; after ED50 pretreatment at 0 h", "value": "0.18 (0.09–0.32) nmol"}
    ]}
  ]
}
